Measurements from patent US9181182B2, “S1P receptors modulators” (Akaal Pharma PTY LTD, priority 2008, dated 2015).
Where a name gives a salt, the structure may show the parent alone.

Tests used:
[1] = system: Human promyelocytic leukemia (HL-60) cells; experiment: Cell viability (growth inhibition) assay, MTS; format: cell-based; conditions: 50% reduction in cell viability of HL-60 cells, 48 hr incubation
Description: In order to measure the apoptotic effect of compounds on the metabolic activity of viable cells, the following assay was performed on Human promyelocytic leukemia cells. The assay utilises the tetrazolium compound (3-(4,5-dimethylthiazol-2-yl)-5-(3-carboxymethoxyphenyl)-2-(4-sulfophenyl)-2H-tetrazolium, inner salt; (MTS) and an electron coupling reagent (phenazine methosulfate; (PMS). MTS is bioreduced by cells into a formazan product the optical absorbance of which is measured directly from 96 well assay plates. The conversion of MTS into aqueous, soluble formazan is accomplished by dehydrogenase enzymes found in metabolically active cells. The quantity of formazan product as measured by the amount of 490 nm absorbance is directly proportional to the number of living cells in culture.
The assay was based on the National Cancer Institute (NCI) protocol, briefly, cells were grown in RPMI 1640 media supplemented with 10% FCS (foetal calf serum) and kept at 37° C. in a humidified environment with 5% CO2.
For the growth inhibition assay, Human promyelocytic leukemia (HL-60) cells were seeded at a density of 10,000 cells per well in 96 well plates in a volume of 100 μl and allowed to grow for 24 h. Compounds were serially diluted in DMSO at concentrations 100 fold higher than used in the assay (100×). Compounds were freshly prepared for each experiment. The 100× stocks were then diluted to 2× stocks into media and immediately, 100 μl of this 2× stock was added to the cells to create the desired final concentration of drug with a DMSO concentration of 1%. One row of each 96 well plate was treated with DMSO alone as a control. Cells were then incubated for a further 48 hr. Metabolic activity was determined using MTS (Promega) (90% 1.6 mg/ml MTS, 10% 1.6 mg/ml PMS (phenazine methosulfate) made fresh in PBS). 50 μl of this mix was added to all wells of the plates and allowed to incubate for 1.5-2 hr. Plates were shaken gently for about 15 min and absorbance was read on a plate reader at 490 nm. Averages were taken of the readings at each point with standard deviation and plotted using MicroCal Origin.

S1P1 human receptor = S1P1 human receptor (Homo sapiens (Human), UniProt P21453); experiment: S1P1 [35S]-GTPgamaS binding assay (agonist activity); format: biochemical; conditions: for EC50: GTPgamaS binding, agonist; for EC50S1P1/EC50S1P: potency at S1P1 relative to S1P; for Efficacy (% of maximum): S1P1, relative to reference agonist S1P
Description: Selected Compounds of the Examples were evaluated at Millipore Corporation, USA, using S1P1 receptor; [^35S]-GTPgamaS binding assay. A [^35S]-GTPgamaS binding assay at Millipore was conducted by GPCR Profiler™ Custom Service Laboratory, Temecula, Calif., Millipore, Inc. to monitor dose-dependent agonist selectivity for selected Examples against the S1P1 receptors. The assay was completed with sample compounds subjected to an eight-point, four-fold dose response curve with starting concentration of 10 μM. Selectivity was determined upon initial addition of compounds followed by a 30 minute incubation at 30° C. Following compound incubation, bounded [^35S]-GTPgamaS was determined by filtration and scintillation counting.
Independently, selected compounds were evaluated for S1P1 and S1P3 agonistic activity. The S1P1 assay system was GTPgama-S35 binding in membranes from CHO K1 cells, expressing S1P1 human receptor. The S1P3 assay system was calcium mobilization in CHO K1 cells expressing S1P3 human receptor. […] Compounds were tested initially at a concentration of 10 μM.

Chain of S1P1 human receptor (P21453 whole entry): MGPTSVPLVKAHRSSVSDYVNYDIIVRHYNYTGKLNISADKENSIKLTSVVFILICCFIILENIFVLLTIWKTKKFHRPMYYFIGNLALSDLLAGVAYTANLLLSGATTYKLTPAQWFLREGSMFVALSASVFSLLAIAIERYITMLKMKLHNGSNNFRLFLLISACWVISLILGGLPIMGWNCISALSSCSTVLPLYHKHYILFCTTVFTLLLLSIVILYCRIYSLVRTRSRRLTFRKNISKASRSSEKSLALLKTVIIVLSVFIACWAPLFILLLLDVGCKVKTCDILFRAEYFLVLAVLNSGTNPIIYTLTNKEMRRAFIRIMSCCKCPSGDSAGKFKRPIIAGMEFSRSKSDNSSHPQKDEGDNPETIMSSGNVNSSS

| SMILES | IC50 [1] | IC50 ([1]; Homo sapiens) | EC50 (S1P1 human receptor) | EC50S1P1/EC50S1P (S1P1 human receptor) | Efficacy (% of maximum) (S1P1 human receptor) |
| --- | --- | --- | --- | --- | --- |
| COc1ccc(CCc2ccc(CCC(N)(CO)CO)cc2)cc1C12CC3CC(CC(C3)C1)C2 [Example 26, 2-Amino-2-(4-(3-(1-admantanyl-4-methoxyphenethyl)phenethyl)propane-1,3-diol hydrochloride salt] | 2.29 ± 0.57 µM | – | – | – | – |
| NC(CO)(CO)CN1CCc2cc(OCc3cccc(F)c3)ccc2C1 [Example 37, 2-Amino-2-((6-(3-fluorobenzyloxy)-3,4-dihydroisoquinolin-2(1H)-yl)methyl)propane-1,3-diol] | – | 26.9 ± 9.16 µM | – | – | – |
| CCCCCCCCc1ccc2c(ccn2CC(N)(CO)CO)c1 [Example 4, 2-Amino-2-((5-octyl-1H-indol-1-yl)methyl)propane-1,3-diol] | – | 3.58 ± 0.04 µM | – | – | – |
| NC(CO)(CO)CCc1ccc(O)c(C23CC4CC(CC(C4)C2)C3)c1 [Example 22, 2-Amino-2-(3-(admantyl)-4-hydroxyphenethyl)propane-1,3-diol hydrochloride salt] | 10.5 ± 0.4 µM | – | – | – | – |
| CC(C)(C)OC(=O)NC(CO)(CO)CN1CCc2c(OCc3cc4c(Cl)cc(Cl)cc4o3)cccc21 [41(b), t-butyl 1-(4-((4,6-dichlorobenzofuran-2-yl)methoxy)indolin-1-yl)-3-hydroxy-2-(hydroxymethyl)propan-2-ylcarbamate] | – | – | > 29 µM | 3066.24 | – |
| CC(C)Oc1cc2c(cc1C13CC4CC(CC(C4)C1)C3)CN(CC(N)(CO)CO)CC2 [Example 61, 2-Amino-2-((7-(1-admantyl)-6-isopropoxy-3,4-dihydroisoquinolin-2(1H)-yl)methyl)propane-1,3-diol] | 3.27 ± 0.12 µM | – | – | – | – |
| CCCCCOc1ccc(-c2nc(-c3ccc4c(c3)CCN4CC(N)(CO)CO)no2)cc1Cl [Example 54, 2-Amino-2-((5-(5-(3-chloro-4-(pentyloxy)phenyl)-1,2,4-oxadiazol-3-yl)indolin-1-yl)methyl)propane-1,3-diol] | – | – | 0.0438 µM | 5.93 | 73% |
| NC(CO)(CO)CN1CCc2cc(CCc3ccc(-c4ccccc4C(F)(F)F)cc3)ccc21 [Example 59, 2-Amino-2-((5-(2-(2′-(trifluoromethyl)biphenyl-4-yl)ethyl)indolin-1-yl)methyl)propane-1,3-diol] | – | – | > 2.13 µM | >1000 | – |
| CCCCCCCCc1ccc(CNCC(N)(CO)CO)cc1 [Example 31, 2-Amino-2-((4-octylbenzylamino)methyl)propane-1,3-diol] | – | > 10 µM | – | – | – |
| NC(CO)(CO)CCc1ccc(-c2ccc(O)c(C34CC5CC(CC(C5)C3)C4)c2)cc1 [Example 64, 2-Amino-2-(2-(3′-(1-admantyl)-4′-hydroxybiphenyl-4-yl)ethyl)propane-1,3-diol hydrochloride salt] | 3.44 ± 0.12 µM | – | – | – | – |
| CCCCOc1ccc(-c2nc(-c3ccc4c(c3)CCN4CC(N)(CO)CO)no2)cc1Cl [Example 52, 2-Amino-2-((5-(5-(4-butoxy-3-chlorophenyl)-1,2,4-oxadiazol-3-yl)indolin-1-yl)methyl)propane-1,3-diol] | – | – | 0.0345 µM | 3.55 | 62% |
| CCCOc1ccc(-c2nc(-c3ccc4c(c3)CCN4CC(N)(CO)CO)no2)cc1Br [Example 56, 2-Amino-2-((5-(5-(3-bromo-4-propoxyphenyl)-1,2,4-oxadiazol-3-yl)indolin-1-yl)methyl)propane-1,3-diol] | – | – | 0.0029 µM | 0.29 | 79% |
| NC(CO)(CO)CCc1ccc(CCCn2cc(C(=O)C(F)(F)F)c3ccccc32)cc1 [Example 11, 1-(1-(3-(4-(3-amino-4-hydroxy-3-(hydroxymethyl)butyl)phenyl)propyl)-1H-indol-3-yl)-2,2,2-trifluoroethanone] | – | 5.54 ± 2.3 µM | – | – | – |
| CCCCCCCCc1ccc2c(c1)C(=O)C(=O)N2CC(N)(CO)CO [Example 5, 1-(2-Amino-3-hydroxy-2-(hydroxymethyl)propyl)-5-octylindoline-2,3-dione] | – | 5.72 ± 2.18 µM | – | – | – |
| CC(C)Oc1ccc(CCC(N)(CO)CO)cc1C12CC3CC(CC(C3)C1)C2 [Example 28, 2-Amino-2-(3-1-admantanyl-4-isopropoxyphenethyl)propane-1,3-diol hydrochloride salt] | 1.56 ± 0.37 µM | – | – | – | – |
| CCOc1ccc(-c2nc(-c3cccc4c3CCN4CC(N)(CO)CO)no2)cc1OC [Example 55, 2-Amino-2-((4-(5-(4-ethoxy-3-methoxyphenyl)-1,2,4-oxadiazol-3-yl)indolin-1-yl)methyl)propane-1,3-diol] | – | – | 0.0316 µM | 2.56 | 101% |
| CCCCCCCCc1ccc(NCC(N)(CO)CO)cc1 [Example 1, 2-Amino-2-((4-octylphenylamino)methyl)propane-1,3-diol] | – | – | > 25 µM | >9259 | – |
| CC(C)Oc1ccc(-c2nc(-c3ccc4c(c3)CCN4CC(N)(CO)CO)no2)cc1Cl [Example 51, 2-Amino-2-((5-(5-(3-chloro-4-isopropoxyphenyl)-1,2,4-oxadiazol-3-yl)indolin-1-yl)methyl)propane-1,3-diol] | – | – | 0.0035 µM | 0.38 | 85% |
| CCCc1ccc(-c2nc(-c3cccc4c3CCN4CC(N)(CO)CO)no2)cc1 [Example 48, 2-Amino-2-((4-(5-(4-propylphenyl)-1,2,4-oxadiazol-3-yl)indolin-1-yl)methyl)propane-1,3-diol] | – | – | 0.0067 µM | 0.14 | 78% |
| NC(CO)(CO)CN1CCC2CCCCC2C1 (stereo not drawn) [Example 62, 2-Amino-2-((octahydroisoquinolin-2(1H)-yl)methyl)propane-1,3-diol] | – | > 100 µM | – | – | – |
| COc1ccc2c(C(=O)c3cc(OC)c(OC)c(OC)c3)cn(S(=O)(=O)c3ccc(CCC(N)(CO)CO)cc3)c2c1 [Example 13, (1-(4-(3-Amino-4-hydroxy-3-(hydroxymethyl)butyl)phenylsulfonyl)-6-methoxy-1H-indol-3-yl)(3,4,5-trimethoxyphenyl)methanone] | – | 0.44 ± 0.04 µM | – | – | – |
| NC(CO)(CO)CN1CCc2cc(OCc3ccc(-c4ccccc4C(F)(F)F)cc3)ccc2C1 [Example 39, 2-Amino-2-((6-((2′-(trifluoromethyl)biphenyl-4-yl)methoxy)-3,4-dihydroisoquinolin-2(1H)-yl)methyl)propane-1,3-diol] | – | – | > 3.24 µM | >1000 | 117% |
| Cl.NC(CO)(CO)CCc1ccc(CCc2ccc(C(=O)c3ccc(F)cc3)cc2)cc1 [Example 12, (4-(4-(3-Amino-4-hydroxy-3-(hydroxymethyl)butyl)phenethyl)phenyl)(4-fluorophenyl)methanone hydrochloride salt] | – | – | 1.82 µM | 557 | 49% |
| CCCOc1ccc(-c2nc(-c3cccc4c3CCN4CC(N)(CO)CO)no2)cc1I [Example 44, 2-Amino-2-((4-(5-(3-iodo-4-propoxyphenyl)-1,2,4-oxadiazol-3-yl)indolin-1-yl)methyl)propane-1,3-diol] | – | – | 0.0481 µM | 18.24 | 60% |
| COc1cc(CCc2ccc3c(c2)CCN3CC(N)(CO)CO)cc(OC)c1OC [Example 6, 2-Amino-2-((5-(3,4,5-trimethoxyphenethyl)indolin-1-yl)methyl)propane-1,3-diol] | – | 44.9 ± 8.85 µM | – | – | – |
| Cc1ccc(-c2ccc(CCC(N)(CO)CO)cc2)cc1 [Example 18, 2-Amino-2-(2-(4′-methylbiphenyl-4-yl)ethyl)propane-1,3-diol] | – | 7.07 ± 0.23 µM | – | – | – |
| CC(C)Oc1ccc(CCN(C)CC(N)(CO)CO)cc1C12CC3CC(CC(C3)C1)C2 [Example 60, 2-Amino-2-(((3-(1-admantyl)-4-isopropoxyphenethyl)(methyl)amino)methyl)propane-1,3-diol] | 3.3 ± 0.26 µM | – | – | – | – |
| CCCOc1ccc(-c2nc(-c3cccc4c3CCN4CC(N)(CO)CO)no2)cc1N [Example 46, 2-Amino-2-((4-(5-(3-amino-4-propoxyphenyl)-1,2,4-oxadiazol-3-yl)indolin-1-yl)methyl)propane-1,3-diol] | – | – | 0.088 µM | 10.61 | 94% |
